Results on five compounds are retold here after US20230364172A1, “MODULATION OF SOLUBILITY, PALATABILITY, ABSORPTION, AND BIOAVAILABILITY OF MITRAGYNA SPECIOSA-DERIVED COMPOUNDS FOR ORAL AND BUCCAL DELIVERY” (Syncotrance, LLC, priority 2022, published 2023).

Values joined by “and” are separate entries in the source; they are usually repeats but may differ in a detail not shown here. Equal entries are not always repeated. Structures can show the parent of a compound that is named as a salt. Where two headings read alike, the source gives them in different places.

Series [1] in a line: Premix vs water for taste masking of sports nutrition active ingredients (Example M). The conditions noted are these: 1.5 g dose in Premix.
Protocol: The supplements were suspended in a premix or water for reference. The active ingredients and their dosages were selected to simulate a sports nutrition drink prepared in a small blender (200 ml volume).
The panelists were asked to rate aversiveness/palatability and provide a brief description of off-flavors.
For series [2] the following is noted: cited from earlier work.
Series [3] in a line: Physicochemical properties of mitragynine (pKa, Log P, aqueous solubility), literature. The source says: Mitragynine is an indole alkaloid comprising 66% of total alkaloids in extracts of Mitragyna speciosa leaves (Adkins, J. E., Boyer, E. W., McCurdy, C. R., 2011. Mitragyna speciosa, a psychoactive tree from Southeast Asia with opioid activity. Curr. Top. Med. Chem. 11, 1165-1175) (Ponglux, D., Wongseripipatana, S., Takayama, H., Kikuchi, M., Kurihara, M., Kitajima, M., Aimi, N., Sakai, S., 1994. A new indole alkaloid, 7 alpha-Hydroxy-7H-mitragynine, from Mitragyna speciosa in Thailand. Planta Med. 60, 580-581.). […] The compound is moderately stable at neutral pH (^˜3.5% degradation after 3 h) but degraded at pH 1.2 (by 26% degradation after 1-2 hr) (Manda, V. K., Avula, B., Ali, Z., Khan, I. A., Walker, L. A., Khan, S. I., 2014. Evaluation of in vitro absorption, distribution, metabolism, and excretion (ADME) properties of mitragynine, 7-hydroxymitragynine, and mitraphylline. Planta Med. 80, 568-576) (Ramanathan, S., Parthasarathy, S., Murugaiyah, V., Magosso, E., Tan, S. C., Mansor, S. M., 2015. Understanding the physicochemical properties of mitragynine, a principal alkaloid of Mitragyna speciosa, for preclinical evaluation. Molecules 20, 4915-4927). […]

For series [4] the following is noted: cited from earlier work. This is another data set of the same source.
The conditions of series [5]: rats; cited from earlier work.
The conditions of series [6]: cited from earlier work. The source holds these as a separate data set.
The conditions of series [7]: 1% w/v, 0.1 mM quinine hydrochloride solution; cited from earlier work.
Series [8] can be described thus: Phase separation of Kratom/Premix emulsion by visual observation (Example C).

In the case of `NCC(=O)[O-].NCC(=O)[O-].[Mg+2]` [Magnesium Glycinate], the “pH in Premix” value in series [1] is listed as “flavors. pH 10.3 caused”.
As usually defined, the pKa is the pH at which an ionisable group is half protonated. A word on the bioavailability: it is dose-corrected exposure relative to a reference, in per cent. Consider `CC[C@@H]1CN2CCc3c([nH]c4cccc(OC)c34)[C@@H]2C[C@@H]1/C(=C\OC)C(=O)OC` [Mitragynine], for which, in series [2], the pKa is recorded as 8.1. For the same compound, the “solubility in aqueous media” value in series [2] (pH 4) is 130 μM and 51.8 μg/ml; in series [2] (pH 7) it was 83 μM and 33.1 μg/ml. The “solubility in a saliva type fluid” value in series [2] (pH 6.5) is on record as 64.6±1.2 μcg/mL. For the same compound, in series [3], the “Biopharmaceutical Classification System (BCS) class” value is on record as “Class II”. The degradation was approximately 3.5% in series [4] (neutral pH, after 3 h) and 26% in series [4] (pH 1.2, after 1-2 hr). In series [5], the “% AUCbrain/AUCplasma” value is 65.8±4.5%. The bioavailability in series [6] (oral administration in rats, calculated from other studies by Ya et al.) was approximately 21%.
For phosphatidic acid, in series [7], the “bitterness-depressing effect due to adsorption” value is recorded as 36.1%, the “bitterness-depressing effect due to suppression at the receptor site” value is listed as 45.6% and the suppression of bitterness was 81.7%.
For the compound Polysorbate 80, the phase separation result in series [8] (Polysorbate 80 0.3% w/v final, added to Final Mix) is reported as “separated”; in series [8] (Polysorbate 80 0.3% w/v final, added to liquid extract), “separated”; in series [8] (Polysorbate 80 0.3% w/v final, added to premix) it was “separated”; in series [8] (Polysorbate 80 0.5% w/v final, added to Final Mix), “separated”; in series [8] (Polysorbate 80 0.5% w/v final, added to liquid extract), “stable”; in series [8] (Polysorbate 80 0.5% w/v final, added to premix), “separated”. For the same compound, the phase separation entry in series [8] (Polysorbate 80 1% w/v final, added to Final Mix) is on record as “separated”; in series [8] (Polysorbate 80 1% w/v final, added to liquid extract), “stable”; in series [8] (Polysorbate 80 1% w/v final, added to premix), “stable”; in series [8] (Polysorbate 80 1.5% w/v final, added to Final Mix) it was “stable”; in series [8] (Polysorbate 80 1.5% w/v final, added to liquid extract) it was “stable”; in series [8] (Polysorbate 80 1.5% w/v final, added to premix) it was “stable”.
As for `CC[C@@H]1CN2CCc3c([nH]c4cccc(OC)c34)[C@H]2C[C@@H]1/C(=C\OC)C(=O)OC` (stereo in doubt) [mitragynine hydrochloride], the “absolute oral bioavailability of mitragynine” value in series [6] (rats, oral in comparison to intravenous administration) is on record as 17.0%.
